The target of one assay is T1, CMPK1 (Homo sapiens, UniProt P30085).
T1 construct: purchased Prospec pKa-002-b
T1 sequence (P30085 1-196): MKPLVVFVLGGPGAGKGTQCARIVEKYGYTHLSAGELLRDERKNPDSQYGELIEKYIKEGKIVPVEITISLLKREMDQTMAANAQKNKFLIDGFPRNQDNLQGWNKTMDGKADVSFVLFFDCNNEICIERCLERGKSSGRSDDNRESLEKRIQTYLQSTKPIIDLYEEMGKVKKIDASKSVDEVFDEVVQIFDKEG
In words: Inhibition of CMPK1 measured by the enzymatic coupling fluorescence method. The assay is classed as biochemical. The conditions noted are these: enzymatic coupling with 20 mM N-ethylmaleimide; matched HPLC method. The protocol: Enzyme inhibitory activities of Ap5A (P^1,P^5-Di(adenosine-5′)pentaphosphate) in which inhibitory activities of dictyostelium (Dictyostelium discoideum) on CMP kinase have been reported (J. Biol. Chem, Vol. 265, No. 11, pp. 6339-6345, 1990) on CMPK1 were measured using a method of the present invention. A 0 to 3 mM Ap5A (1 μl) (catalog number D4022 commercially available from Sigma-Aldrich) solution and 50 μM CMP (2 μl) were added to a 384-well microplate, and 200 μM ATP (2 μi), 3 μg/ml CMPK1, and 4 mM DTT were added thereto (a buffer solution composition included 100 mM Tris-HCl (pH 9), 13.5 mM MgCl2, 150 mM KCl, and 0.1% TritonX-100). The result was covered with a plate seal and incubated for 1 hour at 37° C. Then, the result was cooled at room temperature, and the mixed solution for enzymatic coupling (5 μl) containing 20 mM N-ethylmaleimide was added and incubated for 60 minutes at 25° C. in darkness. Then, fluorescence was measured using a plate reader. A group containing no Ap5A was set as a control (an inhibition rate of 0%), a group containing no CMPK1 was set as a control (an inhibition rate of 100%), and inhibition rates of Ap5A of respective concentrations on CMPK1 were calculated.

Assay [1] relates to enzymatic coupling reaction. In words: Influence on enzymatic coupling itself (25 μM ADP instead of CMP). The assay is classed as biochemical. The conditions noted are these: 25 μM ADP instead of 50 μM CMP. The protocol:
In addition, the same operations were performed using 25 μM ADP instead of 50 μM CMP, and an influence of Ap5A on enzymatic coupling itself was studied. In addition, some of the reaction solution after the kinase reaction of CMPK1 was used, an amount of produced CDP was measured by the HPLC analysis method described in Example 14, and an inhibitory activity was determined by an HPLC method.

The target of assay [2] is T2, human FUT7 (Homo sapiens, UniProt Q11130).
T2 sequence (Q11130 1-342): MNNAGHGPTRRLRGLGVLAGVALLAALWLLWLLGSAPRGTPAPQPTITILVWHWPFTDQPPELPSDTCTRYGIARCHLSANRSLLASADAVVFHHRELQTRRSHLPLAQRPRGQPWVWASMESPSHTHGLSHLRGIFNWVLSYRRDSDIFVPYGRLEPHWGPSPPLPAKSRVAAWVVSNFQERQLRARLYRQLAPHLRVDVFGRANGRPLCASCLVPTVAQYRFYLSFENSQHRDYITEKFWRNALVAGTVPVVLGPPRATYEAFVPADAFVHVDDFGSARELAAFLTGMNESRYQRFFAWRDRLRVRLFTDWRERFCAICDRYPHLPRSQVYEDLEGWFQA
In words: Inhibition of FUT7 measured by the enzymatic coupling fluorescence method of the invention. The assay is classed as biochemical. To be noted: method of the present invention, FUT7 1 μg/ml; read-out: IC50 value, inhibitory activity on FUT7. The protocol: 100 μM GDP-fucose (2.5 μl), 6 mg/ml fetuin, and 0 to 4 μg/ml FUT7 (2.5 μl) were added to a 384-well microplate (a buffer solution included 50 mM Tris-HCl (pH 7.5), 5 mM MgCl2, 10 mM MnCl2, and 0.1% Triton X-100), covered with a plate seal (catalog number 1-6774-01 commercially available from AS ONE corporation) and incubated for 1 hour at 37° C. After being cooled to room temperature, the mixed solution A for the first process (5 μl) was added to the result and incubated for 1 hour at 25° C. The mixed solution B for the second process (10 μl) was added to the result, and incubated for 30 minutes at 25° C. Fluorescence thereof was measured similarly to Example 1. A fluorescence value according to an enzyme concentration was confirmed.
When enzyme activities of FUT7 were measured using the method described in Example 4, an inhibitory effect of gallic acid on FUT7 was studied according to the same operations as in Example 4 except that a reaction of FUT7 (a concentration of 1 μg/ml in a transglucosylation solution) was caused in the presence of gallic acid. A group containing no gallic acid was set as a control (an inhibition rate of 0%), a group containing no FUT7 was set as a control (an inhibition rate of 100%), and inhibition rates of gallic acid of respective concentrations of FUT7 were calculated.

The target in assay [3] is T2, human FUT7. To be noted: reported in Arch. Biochem. Biophys, Vol. 425, No. 1, pp. 51-57, 2004; cited from earlier work.
Assay [4] has as its target T2, human FUT7. In words: Inhibition of FUT7 measured by HPLC quantification of produced GDP. The conditions noted are these: FUT7 1 μg/ml, read-out: IC50 value, inhibitory activity on FUT7. The assay is classed as biochemical. The protocol:
(§1) In addition, the same operations were performed using 50 μM GDP instead of 100 μM GDP-fucose, and an influence of enzymatic coupling itself on gallic acid was studied. In addition, an amount of GDP produced was quantified by HPLC analysis using some of the reaction solution after the FUT7 enzymatic reaction, and an inhibitory activity was determined by an HPLC method.
HPLC conditions were as follows: column: YMC-Triart C18 (commercially available from Ymc Corporation, particle size: 5 μm, and diameter: 4.6 mm×length: 150 mm), eluate: 50 mM KH2PO4—K2HPO4 (10:1), flow rate: 1 ml/min, and detection: UV 260 nm.

Assay [5] has as its system enzymatic coupling reaction. In words: Influence on enzymatic coupling itself (50 μM GDP instead of GDP-fucose). The format is biochemical. To be noted: 50 μM GDP instead of 100 μM GDP-fucose. The protocol: as §1

We go through two compounds from patent publication US20160289728A1, “METHOD FOR DETECTING FLUORESCENCE OR ABSORBANCE, METHOD FOR SUPPRESSING BACKGROUND, METHOD FOR MEASURING ADP, METHOD FOR MEASURING ACTIVITY OF ADP-SYNTHESIZING ENZYME, AND METHOD FOR MEASURING ACTIVITY OF GLUCOSYLTRANSFERASE” (The University of Tokyo, priority 2013, published 2016).

Read-outs that look alike come from different tables or passages of the source.

`Nc1ncnc2c1ncn2[C@@H]1O[C@H](COP(=O)(O)OP(=O)(O)OP(=O)(O)OP(=O)(O)OP(=O)(O)OC[C@H]2O[C@@H](n3cnc4c(N)ncnc43)[C@H](O)[C@@H]2O)[C@@H](O)[C@H]1O` [Ap5A, P^1,P^5-Di(adenosine-5′)pentaphosphate]: the “inhibitory activity on CMPK1” value against CMPK1 is “inhibition of CMPK1”. Further, in assay [1], the “inhibition of the enzymatic coupling reaction itself” value is reported as “did not inhibit the enzymatic coupling reaction itself at all”.
A word on the IC50: it is the concentration at which inhibition is half-maximal. As to `O=C(O)c1cc(O)c(O)c(O)c1` [gallic acid], the IC50 at human FUT7 [2] was ~10 µM; at human FUT7 [3], 5.4 µM; at human FUT7 [4], ~10 µM. In addition, in assay [5], the “inhibition of the enzymatic coupling reaction itself” value is recorded as “did not inhibit the enzymatic coupling reaction itself at all”.
